From patent US12473289B2, “Heterocyclic compounds as delta-5 desaturase inhibitors and methods of use” (Amgen Inc., priority 2019, dated 2025)
pIC50: −log10 of the molar value.

Each compound was assayed against Delta-5-Desaturase (D5D) (Homo sapiens (Human), UniProt O60427) (assay: In vitro measurement of Delta-5-Desaturase inhibitory activity using DGLA-CoA and Arachidonyl-CoA mass spectrometric assays). Settings: membrane preparations of D5D-overexpressing HEK293 6E cells; averaged over at least two independent runs.
Assay type: biochemical
Procedure, shortened: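 Membranes from D5D-overexpressing HEK293 6E cells (10 μg/mL final) in Tris pH 7.5 with MgCl2, octyl glucoside and TCEP were mixed 1:1 with substrate solution (0.01 mM DGLA, 0.25 mM NADH, 0.25 mM ATP, 0.05 mM CoA) for 1 h at ambient temperature. RapidFire SPE-MS/MS MRM; IC50 by 4-parameter fit, ≥2 runs.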

Delta-5-Desaturase (D5D), sequence (O60427 whole entry, species assumed): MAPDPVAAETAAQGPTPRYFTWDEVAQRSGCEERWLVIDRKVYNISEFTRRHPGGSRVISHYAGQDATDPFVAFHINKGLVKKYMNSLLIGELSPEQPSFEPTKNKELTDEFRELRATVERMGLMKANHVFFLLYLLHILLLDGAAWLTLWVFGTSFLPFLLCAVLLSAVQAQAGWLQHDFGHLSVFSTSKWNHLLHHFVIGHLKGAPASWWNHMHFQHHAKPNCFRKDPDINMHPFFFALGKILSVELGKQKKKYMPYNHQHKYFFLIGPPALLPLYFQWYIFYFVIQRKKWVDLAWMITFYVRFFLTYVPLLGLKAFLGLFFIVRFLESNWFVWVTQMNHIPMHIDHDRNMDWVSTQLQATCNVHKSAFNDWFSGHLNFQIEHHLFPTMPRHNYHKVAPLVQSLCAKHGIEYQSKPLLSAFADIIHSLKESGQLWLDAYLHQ

| SMILES | pIC50 |
| --- | --- |
| [2H]C([2H])([2H])Oc1ccn2c(=O)c(-c3ccc(OCC(F)F)cc3)c(C(F)(F)F)nc2c1 [Example 1-52, 3-(4-(2,2-difluoroethoxy)phenyl)-8-(methyloxy-d3)-2-(trifluoromethyl)-4H-pyrido[1,2-a]pyrimidin-4-one] | 8.25 |
| [2H]C([2H])([2H])Oc1ccn2c(=O)c(-c3cnn(CCC(F)(F)F)c3)c(C(F)(F)F)nc2c1 [Example 1-61, 8-(methyloxy-d3)-2-(trifluoromethyl)-3-(1-(3,3,3-trifluoropropyl)-1H-pyrazol-4-yl)-4H-pyrido[1,2-a]pyrimidin-4-one] | 7.94 |
| COc1ccn2c(=O)c(-c3cnc(-c4ccccc4)o3)c(C(F)(F)F)nc2c1 [Example 1-6, 8-methoxy-3-(2-phenyl-1,3-oxazol-5-yl)-2-(trifluoromethyl)-4H-pyrido[1,2-a]pyrimidin-4-one] | 6.96 |
| Cc1cc2nc(C(F)(F)F)c(-c3cnn(CC(F)(F)C(F)(F)F)c3)c(=O)n2cc1F [Example 39-56, 7-fluoro-8-methyl-3-[1-(2,2,3,3,3-pentafluoropropyl)-1H-pyrazol-4-yl]-2-(trifluoromethyl)-4H-pyrido[1,2-a]pyrimidin-4-one] | 7.72 |
| CCNC(=O)c1ccn2c(=O)c(-c3ccc(OCC(F)(F)F)cc3)c(C(F)(F)F)nc2c1 [Example 12-4, N-ethyl-4-oxo-3-(4-(2,2,2-trifluoroethoxy)phenyl)-2-(trifluoromethyl)-4H-pyrido[1,2-a]pyrimidine-8-carboxamide] | 6.16 |
| CCc1ccn2c(=O)c(-c3ccc(OCC(F)(F)F)cc3)c(C(F)(F)F)nc2c1 [Example 2-1, 8-Ethyl-3-(4-(2,2,2-trifluoroethoxy)phenyl)-2-(trifluoromethyl)-4H-pyrido[1,2-a]pyrimidin-4-one] | 7.65 |
| COCc1ccn2c(=O)c(-c3cnn(CC(F)(F)C(F)(F)F)c3)c(C(F)(F)F)nc2c1 [Example 36, 8-(Methoxymethyl)-3-[1-(2,2,3,3,3-pentafluoropropyl)-1H-pyrazol-4-yl]-2-(trifluoromethyl)-4H-pyrido[1,2-a]pyrimidin-4-one] | 6.79 |
| O=c1c(-c2cnn(CC(F)(F)C(F)(F)F)c2)c(C(F)(F)F)nc2cc(OCCl)ccn12 [Example 46, 8-(Chloromethoxy)-3-[1-(2,2,3,3,3-pentafluoropropyl)-1H-pyrazol-4-yl]-2-(trifluoromethyl)-4H-pyrido[1,2-a]pyrimidin-4-one] | 7.78 |
| CCOc1nc2cc(OC)ccn2c(=O)c1-c1cnn(CC(F)(F)C(F)(F)F)c1 [Example 41-4, 2-ethoxy-8-methoxy-3-[1-(2,2,3,3,3-pentafluoropropyl)-1H-pyrazol-4-yl]-4H-pyrido[1,2-a]pyrimidin-4-one] | 7.65 |
| COc1cnn2c(=O)c(-c3cnc(OCC(F)(F)F)nc3)c(C(F)(F)F)nc2c1 [Example 38, 8-Methoxy-3-[2-(2,2,2-trifluoroethoxy)pyrimidin-5-yl]-2-(trifluoromethyl)-4H-pyrimido[1,2-b]pyridazin-4-one] | 7.00 |
| COc1ccn2c(=O)c(-c3cnn(CCC(F)(F)F)c3)c(C(F)F)nc2c1 [Example 1-14, 2-(difluoromethyl)-8-methoxy-3-(1-(3,3,3-trifluoropropyl)-1H-pyrazol-4-yl)-4H-pyrido[1,2-a]pyrimidin-4-one] | 7.64 |
| CN(C(=O)F)c1ccn2c(=O)c(-c3cnn(CC(F)(F)C(F)(F)F)c3)c(C(F)(F)F)nc2c1 [Example 23, Methyl(4-oxo-3-(1-(2,2,3,3,3-pentafluoropropyl)-1H-pyrazol-4-yl)-2-(trifluoromethyl)-4H-pyrido[1,2-a]pyrimidin-8-yl)carbamyl fluoride] | 8.80 |
| O=c1c(-c2cnn(CCC(F)(F)F)c2)c(C(F)(F)F)nc2ccc(F)cn12 [Example 39-27, 7-fluoro-2-(trifluoromethyl)-3-[1-(3,3,3-trifluoropropyl)-1H-pyrazol-4-yl]-4H-pyrido[1,2-a]pyrimidin-4-one] | 8.96 |
